Data set [1] concerns Staphylococcus aureus. The data set can be described thus: Antibacterial activity against methicillin resistant Staphylococcus aureus ATCC 33591 assessed as inhibition of bacterial growth incubated for 18 to 24 hrs by broth microdilution method. Type of data set: functional. The following applies: time 18-24 hrs.
The test system of data set [2] is Staphylococcus aureus. The data set can be described thus: Antibacterial activity against Staphylococcus aureus ATCC 29213 assessed as inhibition of bacterial growth incubated for 18 to 24 hrs by broth microdilution method. The following applies: time 18-24 hrs. The data set is classed as functional.
The subject of data set [3] is Staphylococcus epidermidis. The data set is described as follows: Antibacterial activity against methicillin resistant Staphylococcus epidermidis clinical isolate 19-5 assessed as inhibition of bacterial growth incubated for 18 to 24 hrs by broth microdilution method. The data set is classed as functional. The following applies: time 18-24 hrs.
Data set [4] deals with Staphylococcus epidermidis. The data set can be described thus: Antibacterial activity against methicillin resistant Staphylococcus epidermidis clinical isolate 19-6 assessed as inhibition of bacterial growth incubated for 18 to 24 hrs by broth microdilution method. The data set is classed as functional. The following applies: time 18-24 hrs.
Data set [5] concerns Escherichia coli. The data set is described as follows: Antibacterial activity against Escherichia coli ATCC BAA-2523 assessed as inhibition of bacterial growth incubated for 18 to 24 hrs by broth microdilution method. The data set is classed as functional. As to conditions: time 18-24 hrs.
Data set [6] deals with Escherichia coli. The data set is described as follows: Antibacterial activity against Escherichia coli NCTC 13353 assessed as inhibition of bacterial growth incubated for 18 to 24 hrs by broth microdilution method. Type of data set: functional. As to conditions: time 18-24 hrs.
Data set [7] relates to Escherichia coli. The data set is described as follows: Antibacterial activity against Escherichia coli clinical isolate 19-2 assessed as inhibition of bacterial growth incubated for 18 to 24 hrs by broth microdilution method. As to conditions: time 18-24 hrs. Type of data set: functional.
The test system of data set [8] is Escherichia coli. The data set can be described thus: Antibacterial activity against KPC producing Escherichia coli ATCC BAA-2340 assessed as inhibition of bacterial growth incubated for 18 to 24 hrs by broth microdilution method. Type of data set: functional. As to conditions: time 18-24 hrs.
Data set [9] relates to Klebsiella pneumoniae. The data set is described as follows: Antibacterial activity against carbapenem resistant Klebsiella pneumoniae clinical isolate 19-15 assessed as inhibition of bacterial growth incubated for 18 to 24 hrs by broth microdilution method. The data set is classed as functional. As to conditions: time 18-24 hrs.
Data set [10] has as its system Klebsiella pneumoniae. The data set is described as follows: Antibacterial activity against carbapenem resistant Klebsiella pneumoniae clinical isolate 19-17 assessed as inhibition of bacterial growth incubated for 18 to 24 hrs by broth microdilution method. Type of data set: functional. The following applies: time 18-24 hrs.
Data set [11] has as its system Klebsiella pneumoniae. The data set is described as follows: Antibacterial activity against KPC producing Klebsiella pneumoniae ATCC BAA-1705 assessed as inhibition of bacterial growth incubated for 18 to 24 hrs by broth microdilution method. The data set is classed as functional. As to conditions: time 18-24 hrs.
In data set [12] the test system is Pseudomonas aeruginosa. The data set can be described thus: Antibacterial activity against Pseudomonas aeruginosa clinical isolate 19-1 assessed as inhibition of bacterial growth incubated for 18 to 24 hrs by broth microdilution method. The data set is classed as functional. As to conditions: time 18-24 hrs.
Data set [13] deals with Pseudomonas aeruginosa. The data set is described as follows: Antibacterial activity against carbapenem resistant Pseudomonas aeruginosa clinical isolate 19-3 assessed as inhibition of bacterial growth incubated for 18 to 24 hrs by broth microdilution method. Type of data set: functional. As to conditions: time 18-24 hrs.
Data set [14] has as its system Pseudomonas aeruginosa. The data set is described as follows: Antibacterial activity against carbapenem resistant Pseudomonas aeruginosa clinical isolate 17-1 assessed as inhibition of bacterial growth incubated for 18 to 24 hrs by broth microdilution method. The following applies: time 18-24 hrs. The data set is classed as functional.
Data set [15] has as its system Pseudomonas aeruginosa. The data set is described as follows: Antibacterial activity against Pseudomonas aeruginosa ATCC 27853 assessed as inhibition of bacterial growth incubated for 18 to 24 hrs by broth microdilution method. The data set is classed as functional. The following applies: time 18-24 hrs.
Data set [16] has as its system Acinetobacter baumannii. The data set is described as follows: Antibacterial activity against carbapenem resistant Acinetobacter baumannii clinical isolate 19-8 assessed as inhibition of bacterial growth incubated for 18 to 24 hrs by broth microdilution method. The data set is classed as functional. As to conditions: time 18-24 hrs.
Data set [17] has as its system Acinetobacter baumannii. The data set is described as follows: Antibacterial activity against oxacillinase-27 producing Acinetobacter baumannii NCTC 13304 assessed as inhibition of bacterial growth incubated for 18 to 24 hrs by broth microdilution method. Type of data set: functional. The following applies: time 18-24 hrs.
Data set [18] relates to Escherichia coli. The data set is described as follows: Antibacterial activity against Escherichia coli ATCC 25922 assessed as inhibition of bacterial growth incubated for 18 to 24 hrs by broth microdilution method. As to conditions: time 18-24 hrs. Type of data set: functional.
Data set [19] relates to Escherichia coli. The data set can be described thus: Antibacterial activity against Escherichia coli. Type of data set: functional.
Data set [20] concerns Pseudomonas aeruginosa. The data set is described as follows: Antibacterial activity against Pseudomonas aeruginosa. The data set is classed as functional.
The subject of data set [21] is Klebsiella pneumoniae. The data set can be described thus: Antibacterial activity against Klebsiella pneumoniae. The data set is classed as functional.
Data set [22] deals with Acinetobacter baumannii. The data set can be described thus: Antibacterial activity against Acinetobacter baumannii. The data set is classed as functional.
Data set [23] in a line: Cytotoxicity against human HK-2 cells assessed as inhibition of cell growth incubated for 72 hrs by CCK-8 assay. Type of data set: toxicity, cell-based.
Data set [24] is described as follows: Selectivity index, ratio of IC50 for cytotoxicity against human HK-2 cells to MIC for antibacterial activity against Escherichia coli ATCC BAA-2523. The data set is classed as toxicity, cell-based.
Data set [25] has as its system Staphylococcus aureus. The data set can be described thus: Antibacterial activity against Staphylococcus aureus. Type of data set: functional.
The subject of data set [26] is Staphylococcus epidermidis. The data set is described as follows: Antibacterial activity against Staphylococcus epidermidis. Type of data set: functional.
Data set [27] deals with Candida albicans. The data set is described as follows: Antifungal activity against Candida albicans. Type of data set: functional.

Molecules are shown by their SMILES. In brackets after ≈: the same amount, converted by molar mass. Bridge positions count the residues as written; N and C are the ends. Square brackets hold non-standard residues; d marks the D form. Peptide text beside a SMILES is read from it. * marks the point of attachment. X1 = CC[C@H](C)CCCCC(=O)*; Dab = NCC[C@H](N)C(=O)O

`CC[C@H](C)CCCCC(=O)N[C@@H](CCN)C(=O)N[C@H](C(=O)N[C@@H](CCN)C(=O)N[C@H]1CCNC(=O)[C@H]([C@@H](C)O)NC(=O)[C@H](CCN)NC(=O)[C@H](CCN)NC(=O)[C@H](CC(C)C)NC(=O)[C@@H](Cc2ccccc2)NC(=O)[C@H](CCN)NC1=O)[C@@H](C)O` (X1-[Dab]T[Dab][Dab][Dab][dF]L[Dab][Dab]T; lactam 4-C): the minimum inhibitory concentration (MIC) in [1] is greater than 64 µg/mL; in [2] it was greater than 64 µg/mL; in data set [3], 4 µg/mL (≈ 3.32 µM); in [4] it was 16 µg/mL (≈ 13.3 µM); in data set [5], less than 0.06 µg/mL; in [6] it was 0.5 µg/mL (≈ 0.415 µM). For the same compound, the MIC is no more than 0.06 µg/mL in [7]; no more than 0.06 µg/mL in [8]; 0.125 µg/mL (≈ 0.104 µM) in [9]; 0.25 µg/mL (≈ 0.208 µM) in data set [10]; no more than 0.06 µg/mL in data set [11]; 0.25 µg/mL (≈ 0.208 µM) in data set [12]. Further, the MIC in data set [13] is 0.125 µg/mL (≈ 0.104 µM); in data set [14], 0.25 µg/mL (≈ 0.208 µM); in data set [15], 0.5 µg/mL (≈ 0.415 µM); in [16], no more than 0.06 µg/mL; in [17] it was no more than 0.06 µg/mL; in data set [18] it was 0.25 µg/mL (≈ 0.208 µM). For the same compound, the minimal inhibitory concentration (MIC) was 0.05 µg/mL (≈ 0.0415 µM) in data set [19], 0.2 µg/mL (≈ 0.166 µM) in data set [20], 1 µg/mL (≈ 0.831 µM) in data set [21] and 1 µg/mL (≈ 0.831 µM) in data set [22].
On to `CC[C@H](C)CCCCC(=O)N[C@@H](CCN)C(=O)N[C@H](C(=O)N[C@@H](CCN)C(=O)N[C@H]1CCNC(=O)[C@H]([C@@H](C)O)NC(=O)[C@H](CCN)NC(=O)[C@H](CCN)NC(=O)[C@H](CC(C)C)NC(=O)[C@@H](CC(C)C)NC(=O)[C@H](CCN)NC1=O)[C@@H](C)O` (X1-[Dab]T[Dab][Dab][Dab][dL]L[Dab][Dab]T; lactam 4-C), for which the minimal inhibitory concentration (MIC) in data set [19] is 0.05 µg/mL (≈ 0.0428 µM); in data set [20] it was 0.2 µg/mL (≈ 0.171 µM); in [21], 1 µg/mL (≈ 0.855 µM); in data set [22] it was 1 µg/mL (≈ 0.855 µM).
As for `CCCCCCC[C@@H](O)CC(=O)N[C@H](CCN)C(=O)N[C@H]1CCNC(=O)[C@H](CC(C)C)NC(=O)[C@H](CCN)NC(=O)[C@H](CCN)NC(=O)[C@H](Cc2ccccc2)NC(=O)[C@@H](CC(C)C)NC(=O)[C@H](CCN)NC1=O`, the minimal inhibitory concentration (MIC) turned out to be 32 µg/mL (≈ 30.6 µM) in data set [1]; 32 µg/mL (≈ 30.6 µM) in data set [2]; 2 µg/mL (≈ 1.92 µM) in [3]; 8 µg/mL (≈ 7.66 µM) in [4]; 8 µg/mL (≈ 7.66 µM) in data set [5]; 16 µg/mL (≈ 15.3 µM) in [6]. The minimum inhibitory concentration (MIC) is 16 µg/mL (≈ 15.3 µM) in [7]; 8 µg/mL (≈ 7.66 µM) in [8]; 16 µg/mL (≈ 15.3 µM) in data set [9]; 16 µg/mL (≈ 15.3 µM) in data set [10]; 8 µg/mL (≈ 7.66 µM) in data set [11]; 4 µg/mL (≈ 3.83 µM) in data set [12]. Besides, the minimal inhibitory concentration (MIC) worked out at 4 µg/mL (≈ 3.83 µM) in [13]; 2 µg/mL (≈ 1.92 µM) in data set [14]; 2 µg/mL (≈ 1.92 µM) in data set [15]; 4 µg/mL (≈ 3.83 µM) in [16]; 8 µg/mL (≈ 7.66 µM) in data set [17]; 0.1 µg/mL (≈ 0.0958 µM) in data set [19]. Moreover, the minimal inhibitory concentration (MIC) was 0.4 µg/mL (≈ 0.383 µM) in data set [20]; 0.78 µg/mL (≈ 0.747 µM) in [21]; 4 µg/mL (≈ 3.83 µM) in data set [22]; 3.1 µg/mL (≈ 2.97 µM) in data set [25]; 0.6 µg/mL (≈ 0.575 µM) in data set [26]; 4.7 µg/mL (≈ 4.5 µM) in data set [27]. Besides, the IC50 at 72 h in data set [23] amounted to 16.1 µg/mL (≈ 15.4 µM). Moreover, the selectivity ratio in data set [24] worked out at 2.
